{"source": "ChEMBL document CHEMBL1201862", "about": "“PubChem BioAssay data set” (2004)", "experiment_in_all_cases": "inhibition of tumour cell growth, NCI panel, 48 h", "key": {"[1]": {"tested_on": "SN12C"}, "[2]": {"tested_on": "SK-MEL-5"}, "[3]": {"tested_on": "NCI/ADR-RES"}, "[4]": {"tested_on": "UACC-62"}, "[5]": {"tested_on": "A549"}, "[6]": {"tested_on": "SF-295"}, "[7]": {"tested_on": "MCF7"}, "[8]": {"tested_on": "KM12"}, "[9]": {"tested_on": "786-0"}, "[10]": {"tested_on": "UACC-257"}, "[11]": {"tested_on": "OVCAR-8"}, "[12]": {"tested_on": "K562"}, "[13]": {"tested_on": "HT-29"}, "[14]": {"tested_on": "IGROV-1"}, "[15]": {"tested_on": "COLO 205"}, "[16]": {"tested_on": "HCT-15"}, "[17]": {"tested_on": "NCI-H23"}, "[18]": {"tested_on": "Hs-578T"}, "[19]": {"tested_on": "MDA-N"}, "[20]": {"tested_on": "NCI-H460"}, "[21]": {"tested_on": "MOLT-4"}, "[22]": {"tested_on": "CCRF-CEM"}, "[23]": {"tested_on": "SF-539"}, "[24]": {"tested_on": "SF-268"}, "[25]": {"tested_on": "NCI-H522"}, "[26]": {"tested_on": "PC-3"}, "[27]": {"tested_on": "DU-145"}, "[28]": {"tested_on": "SK-MEL-2"}, "[29]": {"tested_on": "TK-10"}, "[30]": {"tested_on": "HOP-62"}, "[31]": {"tested_on": "OVCAR-3"}, "[32]": {"tested_on": "M14"}, "[33]": {"tested_on": "SNB-19"}, "[34]": {"tested_on": "ACHN"}, "[35]": {"tested_on": "RPMI-8226"}, "[36]": {"tested_on": "LOX IMVI"}, "[37]": {"tested_on": "HCC 2998"}, "[38]": {"tested_on": "HCT-116"}, "[39]": {"tested_on": "EKVX"}, "[40]": {"tested_on": "SW-620"}, "[41]": {"tested_on": "SK-MEL-28"}, "[42]": {"tested_on": "SR"}, "[43]": {"tested_on": "T47D"}, "[44]": {"tested_on": "UO-31"}, "[45]": {"tested_on": "OVCAR-5"}, "[46]": {"tested_on": "HL-60"}, "[47]": {"tested_on": "MDA-MB-435"}, "[48]": {"tested_on": "SK-OV-3"}, "[49]": {"tested_on": "BT-549"}}, "note": "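Following 48 hours of exposure in 96-well plates, responses at five concentrations were used to interpolate endpoints linearly. GI50 marks 50% less growth.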 The source made the active and inactive calls. Rule as the data show it: active = GI50 up to about 1.1 µM and inactive = higher."}
{"smiles": "COc1cc(OC)c(C2c3cc4c(cc3OC(N3CCCC3)C2C)OCO4)c(OC)c1", "note": "(stereo not drawn)", "values": [{"measurement": "GI50", "setting": "[1]", "value": "15.3 µM (inactive)"}, {"measurement": "GI50", "setting": "[2]", "value": "13.8 µM (inactive)"}, {"measurement": "GI50", "setting": "[3]", "value": "15.2 µM (inactive)"}, {"measurement": "GI50", "setting": "[4]", "value": "16.6 µM (inactive)"}, {"measurement": "GI50", "setting": "[5]", "value": "19.7 µM (inactive)"}, {"measurement": "GI50", "setting": "[6]", "value": "8.97 µM (inactive)"}, {"measurement": "GI50", "setting": "[7]", "value": "14.9 µM (inactive)"}, {"measurement": "GI50", "setting": "[8]", "value": "10.6 µM (inactive)"}, {"measurement": "GI50", "setting": "[9]", "value": "15.9 µM (inactive)"}, {"measurement": "GI50", "setting": "[10]", "value": "19.2 µM (inactive)"}, {"measurement": "GI50", "setting": "[11]", "value": "16.3 µM (inactive)"}, {"measurement": "GI50", "setting": "[12]", "value": "19.7 µM (inactive)"}, {"measurement": "GI50", "setting": "[13]", "value": "10.3 µM (inactive)"}, {"measurement": "GI50", "setting": "[14]", "value": "13.5 µM (inactive)"}, {"measurement": "GI50", "setting": "[15]", "value": "> 10 µM (inactive)"}, {"measurement": "GI50", "setting": "[16]", "value": 6.11, "unit": "µM"}, {"measurement": "GI50", "setting": "[17]", "value": "14.8 µM (inactive)"}, {"measurement": "GI50", "setting": "[18]", "value": "3.77 µM (inactive)"}, {"measurement": "GI50", "setting": "[19]", "value": "15 µM (inactive)"}, {"measurement": "GI50", "setting": "[20]", "value": "13.2 µM (inactive)"}, {"measurement": "GI50", "setting": "[21]", "value": "10.9 µM (inactive)"}, {"measurement": "GI50", "setting": "[22]", "value": "15.2 µM (inactive)"}, {"measurement": "GI50", "setting": "[23]", "value": "12.1 µM (inactive)"}, {"measurement": "GI50", "setting": "[24]", "value": "8.49 µM (inactive)"}, {"measurement": "GI50", "setting": "[25]", "value": "15.3 µM (inactive)"}, {"measurement": "GI50", "setting": "[26]", "value": "15.7 µM (inactive)"}, {"measurement": "GI50", "setting": "[27]", "value": "13 µM (inactive)"}, {"measurement": "GI50", "setting": "[28]", "value": "18.7 µM (inactive)"}, {"measurement": "GI50", "setting": "[29]", "value": "19.1 µM (inactive)"}, {"measurement": "GI50", "setting": "[30]", "value": "16.5 µM (inactive)"}, {"measurement": "GI50", "setting": "[31]", "value": "4.26 µM (inactive)"}, {"measurement": "GI50", "setting": "[32]", "value": "12.2 µM (inactive)"}, {"measurement": "GI50", "setting": "[33]", "value": "15 µM (inactive)"}, {"measurement": "GI50", "setting": "[34]", "value": "5.11 µM (inactive)"}, {"measurement": "GI50", "setting": "[35]", "value": "16.4 µM (inactive)"}, {"measurement": "GI50", "setting": "[36]", "value": "11.9 µM (inactive)"}, {"measurement": "GI50", "setting": "[37]", "value": "10.1 µM (inactive)"}, {"measurement": "GI50", "setting": "[38]", "value": "3.98 µM (inactive)"}, {"measurement": "GI50", "setting": "[39]", "value": "22.3 µM (inactive)"}, {"measurement": "GI50", "setting": "[40]", "value": "9.59 µM (inactive)"}, {"measurement": "GI50", "setting": "[41]", "value": "18.4 µM (inactive)"}, {"measurement": "GI50", "setting": "[42]", "value": "11.1 µM (inactive)"}, {"measurement": "GI50", "setting": "[43]", "value": "10.5 µM (inactive)"}, {"measurement": "GI50", "setting": "[44]", "value": "7.67 µM (inactive)"}, {"measurement": "GI50", "setting": "[45]", "value": "18.5 µM (inactive)"}]}
{"smiles": "Cn1c2nc3ccccc3c-2cc2ccccc21", "note": "[NEOCRYPTOLEPINE]", "values": [{"measurement": "GI50", "setting": "[46]", "value": "2.38 µM (inactive)"}, {"measurement": "GI50", "setting": "[6]", "value": "4.59 µM (inactive)"}, {"measurement": "GI50", "setting": "[7]", "value": "2.74 µM (inactive)"}, {"measurement": "GI50", "setting": "[9]", "value": "3.84 µM (inactive)"}, {"measurement": "GI50", "setting": "[12]", "value": "3.41 µM (inactive)"}, {"measurement": "GI50", "setting": "[13]", "value": "2.51 µM (inactive)"}, {"measurement": "GI50", "setting": "[14]", "value": "2.7 µM (inactive)"}, {"measurement": "GI50", "setting": "[15]", "value": "2.93 µM (inactive)"}, {"measurement": "GI50", "setting": "[47]", "value": "4.2 µM (inactive)"}, {"measurement": "GI50", "setting": "[20]", "value": "2.38 µM (inactive)"}, {"measurement": "GI50", "setting": "[22]", "value": "3.15 µM (inactive)"}, {"measurement": "GI50", "setting": "[23]", "value": "3.05 µM (inactive)"}, {"measurement": "GI50", "setting": "[48]", "value": "6.47 µM (inactive)"}, {"measurement": "GI50", "setting": "[26]", "value": "3.3 µM (inactive)"}, {"measurement": "GI50", "setting": "[27]", "value": "6.82 µM (inactive)"}, {"measurement": "GI50", "setting": "[31]", "value": "5.18 µM (inactive)"}, {"measurement": "GI50", "setting": "[36]", "value": "3.27 µM (inactive)"}, {"measurement": "GI50", "setting": "[37]", "value": "2.48 µM (inactive)"}, {"measurement": "GI50", "setting": "[39]", "value": "2.28 µM (inactive)"}, {"measurement": "GI50", "setting": "[40]", "value": "3.68 µM (inactive)"}, {"measurement": "GI50", "setting": "[42]", "value": "2.2 µM (inactive)"}, {"measurement": "GI50", "setting": "[49]", "value": "3.19 µM (inactive)"}, {"measurement": "GI50", "setting": "[43]", "value": "4.81 µM (inactive)"}]}
